Measured values from ChEMBL document CHEMBL5236584, “Design and synthesis of boron-containing ALK inhibitor with favorable in vivo efficacy” (Bioorg Med Chem, 2022).
pIC50: −log10 of the molar value. Blank lines part the entries; values can stand above or below the molecule they belong to.

Key:
[1] = Toxicity in BALB/c nu/nu mouse xenografted with human NCI-H2228 cells assessed as body weight loss at 50 mg/kg, po qd for 23 days; type: organism-based; details: in vivo, 552 h, time 23 day
in vitro [2] = details: mouse, liver microsomes
Description: Half life in mouse liver microsomes at 1 uM preincubated for 5 mins followed by NADPH addition and measured for 60 mins by LC-MS/MS analysis

NCI-H2228 [3] = test: animal or person; details: Mus musculus, NCI-H2228, po, 552 h, read-out: TGI
NCI-H2228 [4] = test: cells; details: Homo sapiens, NCI-H2228, 72 h
Description: Antiproliferative activity against human NCI-H2228 cells assessed as reduction in cell viability measured after 72 hrs by CCK8 assay

[5] = AUC (0 to t) in human NCI-H2228 cells xenografted BALB/c nu/nu mouse plasma at 50 mg/kg, po qd for 23 days by UPLC-MS/MS analysis; type: ADME, organism-based; set-up: time 23 day, dose 50 mg/kg, route po
[6] = Toxicity in BALB/c nu/nu mouse xenografted with human NCI-H2228 cells at 50 mg/kg, po qd for 23 days; type: organism-based; details: in vivo, 552 h, time 23 day
in vitro [7] = details: human, liver microsomes
Description: Metabolic stability of the compound in human liver microsomes assessed as parent compound remaining at 1 uM preincubated for 5 mins followed by NADPH addition and measured after 60 mins by LC-MS/MS analysis

[8] = Drug uptake in tumor of BALB/c nu/nu mouse xenografted with human NCI-H2228 cells at 50 mg/kg, po qd for 23 days and measured at 6 hrs post-last drug dosage by UPLC-MS/MS analysis; type: ADME, organism-based, Neoplasm; details: time 23 day, read-out: Drug uptake
in vitro [9] = details: mouse, liver microsomes; remark: listed apart in the source
Description: Intrinsic clearance in mouse liver microsomes at 1 uM preincubated for 5 mins followed by NADPH addition and measured for 60 mins by LC-MS/MS analysis

[10] = Cmax in human NCI-H2228 cells xenografted BALB/c nu/nu mouse plasma at 50 mg/kg, po qd for 23 days by UPLC-MS/MS analysis; type: ADME, organism-based; set-up: time 23 day, dose 50 mg/kg, route po
in vitro [11] = details: mouse, liver microsomes; remark: listed apart in the source
Description: Metabolic stability of the compound in mouse liver microsomes assessed as parent compound remaining at 1 uM preincubated for 5 mins followed by NADPH addition and measured after 60 mins by LC-MS/MS analysis

[12] = Tmax in human NCI-H2228 cells xenografted BALB/c nu/nu mouse plasma at 50 mg/kg, po qd for 23 days by UPLC-MS/MS analysis; type: ADME, organism-based; details: time 23 day
in vitro [13] = details: human, liver microsomes; remark: listed apart in the source
Description: Half life in human liver microsomes at 1 uM preincubated for 5 mins followed by NADPH addition and measured for 60 mins by LC-MS/MS analysis

in vitro [14] = details: human, liver microsomes; remark: listed apart in the source
Description: Intrinsic clearance in human liver microsomes at 1 uM preincubated for 5 mins followed by NADPH addition and measured for 60 mins by LC-MS/MS analysis

SMILES: COc1cc(N2CCC(N(C)C)CC2)ccc1Nc1ncc(Cl)c(Nc2ccc3c(c2)B(O)OC3)n1
Activity [1]: Non-Toxic
half-life at 1 h, 1 µM (in vitro [2]): 0.633 h
inhibition in vivo at 50 mg/kg (NCI-H2228 [3]): 52%
pIC50 (NCI-H2228 [4]): 6.28
AUC(0-t) at 552 h [5]: 15400 ng·h/mL
Activity [6]: Non-Toxic
remaining at 1 h, 1 µM (in vitro [7]): 82.6%
concentration at 552 h [8]: 1200 ng/g
microsomal CLint at 1 h, 1 µM (in vitro [9]): 36.5 µL/min/mg
Cmax [10]: 3200 ng/mL
remaining at 1 h, 1 µM (in vitro [11]): 32.8%
Tmax [12]: 3.6 h
half-life at 1 h, 1 µM (in vitro [13]): 3.97 h
microsomal CLint at 1 h, 1 µM (in vitro [14]): 5.8 µL/min/mg

SMILES: Cc1cc(Nc2ncc(Cl)c(Nc3ccc4c(c3)B(O)OC4)n2)c(OC(C)C)cc1C1CCNCC1
pIC50 (NCI-H2228 [4]): 5.59

SMILES: COc1cc(N2CCN(C)CC2)ccc1Nc1ncc(Cl)c(Nc2ccc3c(c2)B(O)OC3)n1
half-life at 1 h, 1 µM (in vitro [2]): 0.725 h
pIC50 (NCI-H2228 [4]): 6.08
remaining at 1 h, 1 µM (in vitro [7]): 77.8%
microsomal CLint at 1 h, 1 µM (in vitro [9]): 31.9 µL/min/mg
remaining at 1 h, 1 µM (in vitro [11]): 37.4%
half-life at 1 h, 1 µM (in vitro [13]): 2.97 h
microsomal CLint at 1 h, 1 µM (in vitro [14]): 7.8 µL/min/mg

SMILES: COc1cc(N2CCC(N3CCN(C)CC3)CC2)ccc1Nc1ncc(Cl)c(Nc2cccc3c2B(O)OC3)n1
pIC50 (NCI-H2228 [4]): 6.16

SMILES: COc1cc(N2CCC(N(C)C)CC2)ccc1Nc1ncc(Cl)c(Nc2cccc3c2B(O)OC3)n1
pIC50 (NCI-H2228 [4]): 6.20

The remaining molecules from weak to strong by pIC50 (NCI-H2228 [4]), led by results:

pIC50 (NCI-H2228 [4]): 5.95
SMILES: COc1cc(N2CCC(N3CCN(C)CC3)CC2)ccc1Nc1ncc(Cl)c(Nc2ccc3c(c2)B(O)OC3)n1

pIC50 (NCI-H2228 [4]): 6.21
SMILES: Cc1cc(Nc2ncc(Cl)c(Nc3cccc4c3B(O)OC4)n2)c(OC(C)C)cc1C1CCNCC1
